According to patent US4404217A, “3-Indolyl alkylene amino propanols and cardiovascular compositions thereof” (C. M. Industries, priority 1979, dated 1983):
Where two headings read alike, the source gives them in different places.

Assays:
α1 receptor = test: Displacement of 3H WB 4101, plasmic membranes of rat brains; type: binding; settings: for EC50: read-out: EC50 of DISPLACEMENT of 3H WB 4101, rat brain membranes, 3H WB4101 0.2×10^-9 M; for affinity for the receptor with WB 4101 (α1): in vitro
Description: (§1) The binding tests are effected on suspensions of plasmic membranes coming from various organs. The suspensions of membranes are placed in incubation with the tritiated ligand and various concentrations of products to be tested. After incubation, each test is filtered on GFB(Whatman) filter, the filters are dried and introduced into counting flasks. The measurement of the radioactivity is assessed by scintillation in a liquid medium.
(§2) The tests were made on plasmic membranes of rat brains, in the presence of ^3 H clonidine 1.2×10^-9 M (α2 receptor) and of ^3 H WB4101 (N-[2-(2.6dimethoxyphenoxy)ethyl]1.4benzodioxane-2-methylamine), 0.2×10^-9 M (α1 receptor).

[1] = target: T1, β adrenergic receptors (β1) (Canis lupus familiaris, UniProt P79148); test: Antagonism of the effects of isoprenaline, tachycardia (β1), anaesthetized dog, IV; type: in vivo; settings: for ED50 / cardioselectivity β1 - β2: dog; for ED50: read-out: ID50 ISOPRENALINE β1; for cardioselectivity β1 - β2: isoprenaline antagonism, β1 versus β2; for cardioselective in vivo (selectively inhibit the cardiac receptors): test with isoprenaline
T1 construct: The dog is anaesthetized using sodium pentobarbital; from tissue; host or cells: whole anaesthetized dog (heart)
T1 sequence (P79148 whole entry): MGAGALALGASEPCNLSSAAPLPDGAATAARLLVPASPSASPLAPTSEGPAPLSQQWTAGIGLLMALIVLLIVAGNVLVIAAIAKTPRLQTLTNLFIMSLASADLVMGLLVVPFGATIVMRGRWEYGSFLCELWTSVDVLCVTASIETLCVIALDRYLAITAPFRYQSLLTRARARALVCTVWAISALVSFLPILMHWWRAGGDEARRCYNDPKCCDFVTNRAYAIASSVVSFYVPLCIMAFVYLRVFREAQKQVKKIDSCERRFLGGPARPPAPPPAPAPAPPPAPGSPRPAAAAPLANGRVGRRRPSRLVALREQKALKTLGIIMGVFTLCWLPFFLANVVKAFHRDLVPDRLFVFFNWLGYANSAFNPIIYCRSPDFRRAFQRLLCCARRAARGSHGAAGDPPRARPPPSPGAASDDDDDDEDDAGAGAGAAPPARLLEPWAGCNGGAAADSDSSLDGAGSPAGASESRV

α2 receptor = target: T2, α2 receptor (Rattus norvegicus, UniProt P22909); test: Displacement of 3H clonidine, plasmic membranes of rat brains; type: binding; settings: for affinity for the receptor with clonidine (α2): in vitro
T2 construct: plasmic membranes of rat brains; from tissue; host or cells: rat brain plasma membranes
T2 sequence (P22909 1-465): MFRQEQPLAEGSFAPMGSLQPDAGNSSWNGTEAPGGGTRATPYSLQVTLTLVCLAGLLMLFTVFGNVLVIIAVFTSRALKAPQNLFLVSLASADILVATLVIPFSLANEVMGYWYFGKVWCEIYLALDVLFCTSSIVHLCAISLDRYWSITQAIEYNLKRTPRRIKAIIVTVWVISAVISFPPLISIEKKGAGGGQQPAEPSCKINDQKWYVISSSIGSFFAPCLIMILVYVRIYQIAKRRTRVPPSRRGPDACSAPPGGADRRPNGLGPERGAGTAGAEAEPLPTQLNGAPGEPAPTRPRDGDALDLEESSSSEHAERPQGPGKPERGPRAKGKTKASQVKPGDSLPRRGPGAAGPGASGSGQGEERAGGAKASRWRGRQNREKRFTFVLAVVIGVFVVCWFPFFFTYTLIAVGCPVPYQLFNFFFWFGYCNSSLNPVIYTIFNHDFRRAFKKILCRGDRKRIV
Description: as §1, §2

β2 receptors = target: T3, β2 receptors (Rattus norvegicus, UniProt P10608); test: Displacement of 3H dihydroalprenolol, plasmic membranes of lungs of rats; type: binding
T3 construct: lungs of rats (β2 receptors); from tissue; host or cells: rat lung plasma membranes
T3 sequence (P10608 whole entry): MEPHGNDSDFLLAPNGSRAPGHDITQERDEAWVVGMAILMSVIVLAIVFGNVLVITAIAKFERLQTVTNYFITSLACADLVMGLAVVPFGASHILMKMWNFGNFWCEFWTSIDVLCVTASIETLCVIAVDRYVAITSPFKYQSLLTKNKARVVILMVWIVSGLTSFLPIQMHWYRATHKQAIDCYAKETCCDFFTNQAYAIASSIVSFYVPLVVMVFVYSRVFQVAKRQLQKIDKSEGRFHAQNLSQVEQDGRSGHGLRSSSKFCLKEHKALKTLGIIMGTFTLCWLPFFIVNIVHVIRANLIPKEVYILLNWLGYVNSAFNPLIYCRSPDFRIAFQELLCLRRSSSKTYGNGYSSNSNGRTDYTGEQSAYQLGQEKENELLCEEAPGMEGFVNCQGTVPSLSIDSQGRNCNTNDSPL
Description: as §1
(§3) The tests were made on plasmic membranes of hearts of dogs (β1 receptor) and lungs of rats (β2 receptors), in the presence of ^3 H dihydroalprenolol 4×10^-9 M.

α adrenergic receptors = test: Antagonism of the effects of noradrenaline (pressure response), anaesthetized dog, IV; type: in vivo; settings: 50% inhibition of pressure response to noradrenaline
Description: (§4) The dog is anaesthetized using sodium pentobarbital, administered by the IV route at a dose of 30 mg/kg. A cannula placed in the saphenous vein allows the intra-venous injections of the products. The animal is submitted to intubation and is allowed to breathe spontaneously.
(§5) The cardiac frequency and the systemic arterial pressure are studied and the variations of these parameters are observed after intra-venous injection of the product to be tested. Each product is tested with increasing doses.
The antagonism of the products with respect to the vascular effects provoked by the IV administration of noradrenaline on the α adrenergic receptors has been sought. The results presented in Table III are expressed in ID50 : it is the dose (mg/kg) which provokes the inhibition by 50% of the pressure response due to the IV administration of noradrenaline.

β1 receptor = target: T4, β1 receptor (Canis lupus familiaris, UniProt P79148); test: Displacement of 3H dihydroalprenolol, plasmic membranes of hearts of dogs; type: binding, dog; settings: for affinity for β1 receptors (heart) versus β2 receptors (lungs): in vitro, compared with lung β2 (A5)
T4 construct: plasmic membranes of hearts of dogs (β1 receptor); from tissue; host or cells: dog heart plasma membranes
T4 sequence (P79148 whole entry): as the sequence (P79148 whole entry) above
Description: as §1, §3

[2] = target: T5, β adrenergic receptors (β2) (Canis lupus familiaris, UniProt P54833); test: Antagonism of the effects of isoprenaline, hypotension (β2), anaesthetized dog, IV; type: in vivo; settings: read-out: ID50 ISOPRENALINE β2
T5 construct: The dog is anaesthetized using sodium pentobarbital; from tissue; host or cells: whole anaesthetized dog (vasculature)
T5 sequence (P54833 whole entry): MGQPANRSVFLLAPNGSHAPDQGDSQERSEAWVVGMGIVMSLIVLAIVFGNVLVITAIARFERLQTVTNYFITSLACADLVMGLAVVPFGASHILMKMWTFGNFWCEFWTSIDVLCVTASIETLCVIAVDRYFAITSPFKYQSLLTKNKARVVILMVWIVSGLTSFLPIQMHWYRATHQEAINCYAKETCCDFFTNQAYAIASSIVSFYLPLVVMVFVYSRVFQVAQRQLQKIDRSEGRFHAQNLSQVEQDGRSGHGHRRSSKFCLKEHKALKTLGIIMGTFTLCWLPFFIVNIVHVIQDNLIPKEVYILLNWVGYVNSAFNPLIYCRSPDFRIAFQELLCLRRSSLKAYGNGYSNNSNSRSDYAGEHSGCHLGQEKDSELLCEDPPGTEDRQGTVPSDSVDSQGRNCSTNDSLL
Description: as §4, §5
The antagonism of the products with respect to the β stimulant cardio-vascular effects of isoprenaline on the β adrenergic receptors has been sought. […] The last column indicates the cardioselectivity (β1 >β2) or a low cardioselectivity β1 ≥β2, or no cardioselectivity β1 <β2 and β1 =β2.

[3] = Cardiac frequency and arterial pressure in the anaesthetized dog after intravenous injection; type: in vivo; settings: i.v. route, anaesthetised dog
Description: as §4, §5

platelet aggregation = test: Anti-aggregating activity, BORN technique, plasma rich in platelets, ADP; type: cell-based, human; settings: human platelet-rich plasma; for IC50: ADP, range over all products tested, read-out: concentration for inhibiting by 50% the maximum rate of aggregation
Description: The anti-aggregating activity of the CM 7743, 7744, 7824, 7854, 7859 and 7874 has been studied according to the BORN technique on plasma rich in platelets of human origin. ADP has been used as indicator of platelet aggregation. […] The required concentration for inhibiting by 50% the maximum rate of aggregation varies from 45 to 100 μM.

[4] = IV, 50% inhibition of isoprenaline tachycardia
[5] = IV, 50% inhibition of isoprenaline hypotension
[6] = rat brain membranes, 3H clonidine 1.2×10^-9 M
[7] = dog heart membranes, 3H dihydroalprenolol 4×10^-9 M
[8] = rat lung membranes, 3H dihydroalprenolol 4×10^-9 M

| Compound | EC50 (α1 receptor) [nM] | ED50 [1, 4] [mg/kg] | cardioselectivity β1 - β2 ([1]; IV) | ID50 NORADRENALINE α (α adrenergic receptors) [mg/kg] | ED50 [2, 5] [mg/kg] | reduction in the peripheral arterial pressure [3] | ED50 ([1]; iv) [mg/kg] | affinity for the receptor with clonidine (α2) (α2 receptor) | cardioselective in vivo (selectively inhibit the cardiac receptors) [1] | EC50 (β2 receptors) [nM] | EC50 (β1 receptor) [nM] | EC50 (β1 receptor; [7]) [nM] | EC50 (β2 receptors; [8]) [nM] | further results |
| --- | --- | --- | --- | --- | --- | --- | --- | --- | --- | --- | --- | --- | --- | --- |
| Cc1ccccc1OCC(O)CNC(CO)Cc1c[nH]c2ccccc12 (racemic) [compound 7906] | 1.1 | 0.3 to 1 | β1 ≥ β2 (low cardioselectivity β1 ≥β2) | > 3 | 1 | reduction in the peripheral arterial pressure | – | – | – | – | – | – | – | EC50 (α2 receptor; read-out: EC50 of DISPLACEMENT of 3H CLONIDINE, rat brain membranes, 3H clonidine 1.2×10^-9 M): 41 nM; EC50 (β2 receptors; read-out: EC50 of DISPLACEMENT of 3H DIHYDROALPRENOLOL, Lung (β2), rat lung membranes, 3H dihydroalprenolol 4×10^-9 M): 155 nM; EC50 (β1 receptor; read-out: EC50 of DISPLACEMENT of 3H DIHYDROALPRENOLOL, Heart (β1), dog heart membranes, 3H dihydroalprenolol 4×10^-9 M): 215 nM |
| CCC(=O)c1ccc(OCC(O)CNC(C)Cc2c[nH]c3ccccc23)c(Cl)c1 (stereo not shown) [compound 7743] | – | – | β1 ≥ β2 (low cardioselectivity β1 ≥β2) | 3 | – | – | 1 to 3 | no affinity | – | – | – | – | – | ED50 ([2]; iv): ≥ 3 mg/kg; inhibition of the platelet response with respect to the ADP (platelet aggregation): inhibited the platelet response; IC50 (platelet aggregation): 45000 to 100000 nM |
| NC(=O)Cc1ccc(OCC(O)CNCCc2c[nH]c3ccccc23)cc1 (stereo not shown) [compound 7748] | 2.7 | 1 to 3 | β1 > β2 (cardioselectivity (β1 >β2)) | 1 | > 3 | – | – | no affinity | cardioselective in vivo | – | – | – | – | EC50 (α2 receptor; [6]): 29.5 nM; affinity for β1 receptors (heart) versus β2 receptors (lungs) (β1 receptor): clearly greater affinity for the β1 receptors (heart) than for the β2 receptors (lungs) |
| Cc1cccc(OCC(O)CNC(C)Cc2c[nH]c3ccccc23)c1 (stereo not shown) [compound 7782] | – | – | β1 > β2 (cardioselectivity (β1 >β2)) | 0.3 | ≥ 3 | – | 0.1 to 0.3 | no affinity | cardioselective in vivo | 61.5 | 53 | – | – | EC50 (α2 receptor; [6]): 30 nM |
| CCCC(=O)Nc1ccc(OCC(O)CNC(C)Cc2c[nH]c3ccccc23)c(C(C)=O)c1 (stereo not shown) [compound 7798] | – | – | β1 > β2 (cardioselectivity (β1 >β2)) | > 3 | ≥ 3 | – | 1 | – | cardioselective in vivo | – | – | 550 | – | affinity for β1 receptors (heart) versus β2 receptors (lungs) (β1 receptor): clearly greater affinity for the β1 receptors (heart) than for the β2 receptors (lungs) |
| CC(Cc1c[nH]c2ccccc12)NCC(O)COc1ccccc1Cl (stereo not shown) [compound 7806] | 310 | – | – | 0.3 | – | reduction in the peripheral arterial pressure | 0.3 | no affinity | – | 12 | 27.5 | – | – | affinity for the receptor with WB 4101 (α1) (α1 receptor): have an affinity; EC50 (α2 receptor): 12 nM; ED50 ([2]; iv): ≥ 0.1 mg/kg |
| Cc1ccccc1OCC(O)CNC(C)(C)Cc1c[nH]c2ccccc12 (stereo not shown) [compound 7854] | 320 | 0.01 to 0.1 | β1 ≥ β2 (low cardioselectivity β1 ≥β2) | 0.1 | 0.02 to 0.1 | – | – | – | – | – | – | 16 | 3.7 | EC50 (α2 receptor; [6]): 6 nM; inhibition of the platelet response with respect to the ADP (platelet aggregation): inhibited the platelet response; IC50 (platelet aggregation): 45000 to 100000 nM |
| CC(Cc1c[nH]c2ccc(Cl)cc12)NCC(O)COc1ccc(CC(N)=O)cc1 (stereo not shown) [compound 7859] | 2.3 | – | β1 > β2 (cardioselectivity (β1 >β2)) | 0.3 to 3 | ≥ 3 | – | 0.3 to 1 | no affinity | cardioselective in vivo | – | – | 625 | 1000 | EC50 (α2 receptor): 19 nM; inhibition of the platelet response with respect to the ADP (platelet aggregation): inhibited the platelet response; IC50 (platelet aggregation): 45000 to 100000 nM |
| Cc1ccccc1OC[C@@H](O)CN[C@H](CO)Cc1c[nH]c2ccccc12 [compound 7898] | – | 0.1 to 0.3 | β1 ≥ β2 (low cardioselectivity β1 ≥β2) | > 3 | 0.3 to 1 | reduction in the peripheral arterial pressure | – | – | – | – | – | 51 | 64 | – |
| Cc1ccccc1OC[C@@H](O)CN[C@@H](CO)Cc1c[nH]c2ccccc12 [compound 7899] | – | 0.3 | β1 ≥ β2 (low cardioselectivity β1 ≥β2) | > 3 | 0.3 to 1 | reduction in the peripheral arterial pressure | – | – | – | – | – | 135 | 82 | – |
| Cc1ccccc1OC[C@H](O)CN[C@@H](CO)Cc1c[nH]c2ccccc12 [compound 7902] | – | > 3 | β1 < β2 (no cardioselectivity β1 <β2) | > 3 | > 3 | reduction in the peripheral arterial pressure | – | – | – | – | – | 7400 | 3800 | – |
| CC(Cc1c[nH]c2ccccc12)NCC(O)COc1ccccc1C(=O)c1ccccc1 (stereo not shown) [compound 7904] | – | – | β1 ≥ β2 (low cardioselectivity β1 ≥β2) | > 0.3 | 0.1 | – | ≤ 0.1 | – | – | 14 | 7.9 | – | – | – |
| Cc1ccccc1OCC(O)CNC(C)Cc1c[nH]c2ccc(F)cc12 (stereo not shown) [compound 7983] | 600 | – | β1 > β2 (cardioselectivity (β1 >β2)) | > 0.3 | – | – | 0.3 | – | cardioselective in vivo | 47 | 19 | – | – | affinity for the receptor with WB 4101 (α1) (α1 receptor): have an affinity; ED50 ([2]; iv): > 0.3 mg/kg |
| CC(Cc1c[nH]c2ccc(F)cc12)NCC(O)COc1ccccc1 (stereo not shown) [compound 40038] | – | – | β1 > β2 (cardioselectivity (β1 >β2)) | 0.1 | > 0.3 | reduction in the peripheral arterial pressure | 0.1 | no affinity | cardioselective in vivo | 29 | 34 | – | – | – |
